Measurements taken from patent publication US9201062B2, “Predicting toxicity of a compound over a range of concentrations” (CELLOMICS, INC., priority 2011, dated 2015).
Counter-ions that a name gives are not always drawn.

What was measured:
[1] = system: Reactive oxygen species (ROS) levels in cells
Text: Once imaging has been performed, automated image processing algorithms as are known in the art can be used in the imaging system to determine the measurements in the cell images.
The target i being evaluated was the normalized ROS response.
where μ is the mean of the normalized non-hepatotoxic compound values and σ is the standard deviation of the normalized non-hepatotoxic compound values.
As noted above, for ROS, the upper threshold may be all that is needed. […] The difficulty in compound toxicity measurement because of non-unidirectional response and/or because of incorrect EC50/IC50 calculation from a dose-response curve are avoided by establishing toxicity thresholds based on the negative controls and by flagging a compound as toxic only if its response goes beyond the determined thresholds at any concentration.
For each target, the minimal coefficient K of the deviation value from the mean of the non-hepatotoxic compound data can be calculated to include all the non-hepatotoxic compounds values between μ+K×σ and μ−K×σ values. These values are set respectively as the upper and lower toxicity thresholds for the target. As noted above, for each target both or only one of the thresholds can be used.
(§1) The normalized values from the hepatotoxic compounds (or compounds of interest) are compared with the threshold value determined above. The compound toxicity is determined by verifying whether the normalized value of the compound is outside the threshold value(s). […] Cell loss was determined to be toxic if the normalized value was less than the lower threshold value. Reactive oxygen species level was determined to be toxic if the respective normalized value was greater than the upper threshold value.

[2] = peak serum concentration of the drug; cited from earlier work
rat primary hepatocytes = assay: Multiparametric high-content hepatotoxicity prediction assay on rat primary hepatocytes (FIG. 9 decision table); conditions: 24 hours drug incubation, over concentration range, targets: cell number, DNA content, GSH, ROS, mitochondrial membrane potential
Text: After drug treatment, the hepatic cells are stained with specific fluorescent materials to detect different cellular targets or properties whose changes are associated with cell health, as is known in the art. For example, in the exemplary embodiments discussed herein, as well as in the test data shown, the following five cellular responses are simultaneously monitored: • 1. Cell number (i.e., cell loss, cell density) • 2. Nuclear DNA content • 3. Reduced glutathione (GSH) levels in cells • 4. Reactive oxygen species (ROS) levels in cells • 5. Mitochondrial membrane potential changes
Otherwise the cell contains a “−”.
This corresponds to the number of target cells corresponding to the compound that contain a “+”.
For maintenance of rat primary hepatocytes, Williams E medium can be used containing the following supplements: 15 mM HEPES, 1% ITS+, 4 mM Glutamax, 0.1 μM dexamethasone, 50 units/ml penicillin and 50 μg/ml streptomycin (Hepatocyte maintenance medium). […]
For each target, the minimal coefficient K of the deviation value from the mean of the non-hepatotoxic compound data can be calculated to include all the non-hepatotoxic compounds values between μ+K×σ and μ−K×σ values. […]
as §1
The images were analyzed, as discussed above, to produce the data shown on FIG. 9. […] After 24 hours of drug incubation, the hepatocytes were stained and imaged on a Thermo Scientific ToxInsight HCS reader. The data for each target were normalized and analyzed based on the threshold calculated from the non-hepatotoxic compounds in the manner discussed above. […]

HepG2 cells = assay: High-content imaging of HepG2 cells stained for nuclei, glutathione, ROS and mitochondria (FIG. 11); assay type: cell-based; conditions: 25 Cmax, 24 hrs
Experimental: For routine culture of HepG2 cells, EMEM medium containing the following supplements can be used: 10% fetal bovine serum, 1 mM sodium pyruvate, 1× non-essential amino acids, 100 units/ml penicillin and 100 μg/ml streptomycin (EMEM complete medium).
Cells can be harvested by trypsinization, diluted into EMEM complete medium and cell density was determined. Cells are diluted to 2.0×10^5 cells/ml in EMEM complete medium. 100 μl of the cell suspension are added per well of the 96-well microplate to achieve 20,000 cells/well.
The cells were then stained with specific fluorescent dyes to detect each cellular target. Cell images were then obtained using the ArrayScan VTi Reader manufactured by Cellomics Inc., a subsidiary of Thermo Fisher Scientific Inc. Representative samples 230 of the cell images obtained during the assay are shown in FIG. 11. […] The images of the cells for the different targets look different for the two drugs; Troglitazone reduces the number of cells and mitochondrial membrane potential but […] reduced glutathione levels in HepG2 cells.

## CC(=O)Oc1ccccc1C(=O)O [Aspirin]
[1]
  normalized ROS response relative to upper and lower toxicity thresholds: between the upper and lower thresholds values
[2]
  1 CMax: 0.995 µg/mL

## CN1CCC(=C2c3ccccc3C=Cc3ccccc32)CC1 [Cyproheptadine HCl]
[2]
  1 CMax: 30 µg/mL

## O=C1CN(/N=C/c2ccc(-c3ccc([N+](=O)[O-])cc3)o2)C(O)=N1 [Dantrolene]
[2]
  1 CMax: 1.24 µg/mL

## N#CC(C#N)=NNc1ccc(OC(F)(F)F)cc1 [FCCP]
Rat primary hepatocytes
  number of targets flagged as being toxic (of five monitored targets): Four

## CNCCC(Oc1ccc(C(F)(F)F)cc1)c1ccccc1 (stereo not drawn) [Fluoxetine]
[1]
  normalized ROS response relative to upper and lower toxicity thresholds: between the upper and lower thresholds values
Rat primary hepatocytes
  number of targets flagged as being toxic (of five monitored targets): none
[2]
  1 CMax: 0.015 µg/mL

## Cc1ccc(C)c(OCCCC(C)(C)C(=O)O)c1 [Gemfibrozil]
[2]
  1 CMax: 46.4 µg/mL

## CCN(CC)CCNc1ccc(CO)c2sc3ccccc3c(=O)c12 [Hycanthone]
[1]
  normalized ROS response relative to upper and lower toxicity thresholds: flagged as being toxic

## Cc1cccc(Nc2ccccc2C(=O)O)c1C [Mefenamic Acid]
[1]
  normalized ROS response relative to upper and lower toxicity thresholds: flagged as being toxic
[2]
  1 CMax: 6.5 µg/mL

## COc1ccc2[nH]cc(CCNC(C)=O)c2c1 [Melatonin]
[1]
  normalized ROS response relative to upper and lower toxicity thresholds: between the upper and lower thresholds values
[2]
  1 CMax: 0.00557 µg/mL

## CCn1cc(C(=O)O)c(=O)c2ccc(C)nc21 [Nalidixic Acid]
[2]
  1 CMax: 30 µg/mL

## CO[C@@H]1[C@@H](OC(N)=O)[C@@H](O)[C@H](Oc2ccc3c(O)c(NC(=O)c4ccc(O)c(CC=C(C)C)c4)c(=O)oc3c2C)OC1(C)C [Novobiocin]
[1]
  normalized ROS response relative to upper and lower toxicity thresholds: flagged as being toxic
Rat primary hepatocytes
  number of targets flagged as being toxic (of five monitored targets): five
[2]
  1 CMax: 62.5 µg/mL

## CCCCC1C(=O)N(c2ccccc2)N(c2ccccc2)C1=O [Phenylbutazone]
[2]
  1 CMax: 150 µg/mL

## CN(CCOc1ccc(CC2SC(=O)NC2=O)cc1)c1ccccn1 (stereo not drawn) [Rosiglitazone]
[2]
  1 CMax: 0.373 µg/mL

## CN(C)[C@@H]1C(O)=C(C(N)=O)C(=O)[C@@]2(O)C(O)=C3C(=O)c4c(O)cccc4[C@@](C)(O)[C@H]3C[C@@H]12 [Tetracycline]
[2]
  1 CMax: 9.317 µg/mL

## Clc1ccccc1CN1CCc2sccc2C1 [Ticlopidine]
[2]
  1 CMax: 2.13 µg/mL

## O=c1n(CCCN2CCN(c3cccc(Cl)c3)CC2)nc2ccccn12 [Trazodone HCl]
[2]
  1 CMax: 1.88 µg/mL

## Cc1c(C)c2c(c(C)c1O)CCC(C)(COc1ccc(CC3SC(=O)NC3=O)cc1)O2 (stereo not drawn) [Troglitazone]
HepG2 cells
  mitochondrial membrane potential: reduces
  number of cells: reduces
  reduced glutathione levels: increases
[2]
  1 CMax: 2.82 µg/mL
